Data reported in patent US8557603B2, “Synthetic peptides, methods and kits for diagnosing autoimmune diseases” (FlySun Development Co. Ltd., priority 2009, dated 2013).

Tested on: IgA autoantibodies of patients with acute HSP
Experiment: ELISA detection of IgA anti-β2-GPI-derived peptides antibodies
Assay type: binding, human
Details: for binding between IgA derived from 7 patients with acute HSP and the synthetic peptide: IgA1-7 at 10 (g/ml), n=7, OD higher than positive control (β2-GPI) regarded as significant, FIG. 8; for plasma level of IgA anti-β2-GPI peptide antibodies in children with acute HSP compared with healthy subjects: plasma 1:50, peptide coated at 10 (g/ml), expressed as OD, p<0.0001
Procedure: Circulating IgA immunoglobulins were isolated from 7 plasma samples positive for both CL and β2GPI by use of a commercial kit, Immobilized Jacalin (PIERCE, USA, USA), which isolates serum-circulating IgA1 by galactose-binding lectin.
Briefly, 96-well high binding plates (Costar, Cambridge, Mass., USA) are coated with human β-2-GPI peptides 1-15 at a concentration of 10 (g/ml in Tris-buffered saline (TBS, 0.05 M Tris-HCl and NaCl, PH 7.5). After incubating overnight at 4° C., plates are blocked with TBS containing 0.3% gelatin. Then, plasma samples (1:50 for IgA), and IgA fraction from patients (indicated concentrations) in TBS/0.1% gelatin were distributed into wells in duplicate and incubated for 1.5 hours at room temperature. A pooled normal human IgA (Jackson ImmunoResearch, West Grove, Pa., USA) will be used as negative controls at the same concentrations. After washing with TBS, bound human […] were detected with HRP-conjugated goat anti-human IgA (BioSource International, Camarillo, Calif., USA), and the peroxidase substrate tetramethylbenzidine (Kirkegaard & Perry Laboratories, Gaithersburg, Md., USA). Results were read at a wavelength of 450 nm against a background of 650 nm with a Thermomax plate reader (Molecular Devices Inc., Sunnyvale, Calif., USA).

Substance: H2N-FKNGMLHGDKVSFFCKNKEK-COOH (H-FKNGMLHGDKVSFFCKNKEK-OH; listed as Homo sapiens) [P12, synthetic β2-GPI-derived peptide, residues 286-305]
- binding between IgA derived from 7 patients with acute HSP and the synthetic peptide: significant binding
- plasma level of IgA anti-β2-GPI peptide antibodies in children with acute HSP compared with healthy subjects (FIGS. 7, 8 and 9): significantly higher

Substance: H2N-KATFGCHDGYSLDGPEEIECTKLGNWSAMPSCKASCKVPVKKATVVYQGERVKIQEK-COOH (H-KATFGCHDGYSLDGPEEIECTKLGNWSAMPSCKASCKVPVKKATVVYQGERVKIQEK-OH; cysteine pairing not given here; listed as Homo sapiens) [P11, synthetic β2-GPI-derived peptide, residues 229-285]
- binding between IgA derived from 7 patients with acute HSP and the synthetic peptide: significant binding
- plasma level of IgA anti-β2-GPI peptide antibodies in children with acute HSP compared with healthy subjects (FIGS. 7, 8 and 9): significantly higher

Substance: H2N-KPGYVSRGGMRKFICPLTGLWPINTLK-COOH (H-KPGYVSRGGMRKFICPLTGLWPINTLK-OH; listed as Homo sapiens) [P3, synthetic β2-GPI-derived peptide, residues 52-78]
- binding between IgA derived from 7 patients with acute HSP and the synthetic peptide: significant binding
- binding strength among the synthetic peptides (IgA anti-peptide antibodies, children with acute HSP, FIGS. 7, 8 and 9): most significant
- plasma level of IgA anti-β2-GPI peptide antibodies in children with acute HSP compared with healthy subjects (FIGS. 7, 8 and 9): significantly higher

Substance: H2N-KWSPELPVCAPIICPPPSIPTFATLRVYK-COOH (H-KWSPELPVCAPIICPPPSIPTFATLRVYK-OH; cysteine pairing not given here; listed as Homo sapiens) [P7, synthetic β2-GPI-derived peptide, residues 129-157]
- binding between IgA derived from 7 patients with acute HSP and the synthetic peptide: significant binding
- plasma level of IgA anti-β2-GPI peptide antibodies in children with acute HSP compared with healthy subjects (FIGS. 7, 8 and 9): significantly higher

Substance: H2N-RYTTFEYPNTISFSCNTGFYLNGADSAK-COOH (H-RYTTFEYPNTISFSCNTGFYLNGADSAK-OH; listed as Homo sapiens) [P5, synthetic β2-GPI-derived peptide, residues 96-123]
- binding between IgA derived from 7 patients with acute HSP and the synthetic peptide: significant binding
- plasma level of IgA anti-β2-GPI peptide antibodies in children with acute HSP compared with healthy subjects (FIGS. 7, 8 and 9): significantly higher
